Molecular target: influenza A virus minigenome (PB2, PB1, PA, NP proteins) (UniProt P04665)
Type: cell-based
Settings: read-out: RNP_ Hubei B IC50

influenza A virus minigenome (PB2, PB1, PA, NP proteins), sequence (P04665 whole entry): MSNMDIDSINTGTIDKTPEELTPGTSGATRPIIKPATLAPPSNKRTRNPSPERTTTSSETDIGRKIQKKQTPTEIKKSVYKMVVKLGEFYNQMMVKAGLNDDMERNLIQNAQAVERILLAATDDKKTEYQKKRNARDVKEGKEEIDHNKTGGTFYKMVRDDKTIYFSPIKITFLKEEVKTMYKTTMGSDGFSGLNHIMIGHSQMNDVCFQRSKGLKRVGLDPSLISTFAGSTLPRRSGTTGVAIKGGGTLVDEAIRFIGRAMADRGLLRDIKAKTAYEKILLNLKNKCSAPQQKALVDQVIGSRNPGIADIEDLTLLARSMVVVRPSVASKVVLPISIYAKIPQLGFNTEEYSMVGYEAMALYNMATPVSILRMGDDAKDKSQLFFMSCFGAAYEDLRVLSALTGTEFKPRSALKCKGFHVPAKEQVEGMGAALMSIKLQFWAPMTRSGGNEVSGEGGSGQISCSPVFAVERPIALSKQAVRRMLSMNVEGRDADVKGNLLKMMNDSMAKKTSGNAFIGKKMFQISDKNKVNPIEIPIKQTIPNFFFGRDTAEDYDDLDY

NC(=O)c1cc(-c2ccc(OCC3COCC(COC(F)(F)F)O3)cc2)c(C(F)(F)F)[nH]c1=O (single isomer, unassigned) [Example 373, 2-oxo-5-(4-((6-((trifluoromethoxy)methyl)-1,4-dioxan-2-yl)methoxy)phenyl)-6-(trifluoromethyl)-1,2-dihydropyridine-3-carboxamide] was tested. Which IC50 did it give?
Its IC50 is 5 to 10 µM.

CCOC[C@@]1(C)COC[C@@H](COc2ccc(-c3cc(C(N)=O)c(=O)[nH]c3C(F)(F)F)cc2)O1 [Example 428, 5-(4-(((2S,6S)-6-(ethoxymethyl)-6-methyl-1,4-dioxan-2-yl)methoxy)phenyl)-2-oxo-6-(trifluoromethyl)-1,2-dihydropyridine-3-carboxamide] was tested. Which IC50 did it give?
The IC50 was 5 to 10 µM.

With Cn1ncc2c1COCC2COc1ccc(-c2cc(C(N)=O)c(=O)[nH]c2C(F)(F)F)cc1 (single isomer, unassigned) [Example 289, 5-(4-((1-methyl-1,4,5,7-tetrahydropyrano[3,4-c]pyrazol-4-yl)methoxy)phenyl)-2-oxo-6-(trifluoromethyl)-1,2-dihydropyridine-3-carboxamide] as the compound, how does the IC50 read?
The IC50 was 5 to 10 µM.

Which IC50 does the source give for CC(C)n1ncc2c1COCC2COc1ccc(-c2cc(C(N)=O)c(=O)[nH]c2C(F)(F)F)cc1 (single isomer, unassigned) [Example 293, 5-(4-((1-isopropyl-1,4,5,7-tetrahydropyrano[3,4-c]pyrazol-4-yl)methoxy)phenyl)-2-oxo-6-(trifluoromethyl)-1,2-dihydropyridine-3-carboxamide] here?
The IC50 was 5 to 10 µM.

Which IC50 does the source give for NC(=O)c1cc(-c2ccc(OC[C@H]3COC[C@@H](C4CC4)O3)cc2)c(C(F)(F)F)[nH]c1=O [Example 325, 5-(4-(((2R,6R)-6-cyclopropyl-1,4-dioxan-2-yl)methoxy)phenyl)-2-oxo-6-(trifluoromethyl)-1,2-dihydropyridine-3-carboxamide] here?
The IC50 was 10 to 25 µM.

For NC(=O)c1cc(-c2ccc(OCC3CCOC3)cc2)c(C(F)(F)F)[nH]c1=O (stereo not shown) [Example 231, 2-oxo-5-(4-((tetrahydrofuran-3-yl)methoxy)phenyl)-6-(trifluoromethyl)-1,2-dihydropyridine-3-carboxamide], which IC50 is on record?
Its IC50 is 25 to 50 µM.

Which IC50 does the source give for CN1CCOCC1COc1ccc(-c2cc(C(N)=O)c(=O)[nH]c2C(F)(F)F)cc1 (stereo not shown) [Example 247, 5-(4-((4-methylmorpholin-3-yl)methoxy)phenyl)-2-oxo-6-(trifluoromethyl)-1,2-dihydropyridine-3-carboxamide] here?
Its IC50 is 25 to 50 µM.

NC(=O)c1cc(-c2ccc(OCc3cc(C4CC4)on3)cc2)c(C(F)(F)F)[nH]c1=O [Example 268, 5-(4-((5-cyclopropylisoxazol-3-yl)methoxy)phenyl)-2-oxo-6-(trifluoromethyl)-1,2-dihydropyridine-3-carboxamide] was tested. Which IC50 did it give?
The IC50 was 25 to 50 µM.

With NC(=O)c1cc(-c2ccc(OCC3COCC(C(F)F)O3)cc2)c(C(F)(F)F)[nH]c1=O (single isomer, unassigned) [Example 349, 5-(4-((6-(difluoromethyl)-1,4-dioxan-2-yl)methoxy)phenyl)-2-oxo-6-(trifluoromethyl)-1,2-dihydropyridine-3-carboxamide] as the compound, how does the IC50 read?
Its IC50 is 5 to 10 µM.

For C[C@]1(CF)COC[C@@H](COc2ccc(-c3cc(C(N)=O)c(=O)[nH]c3C(F)(F)F)cc2)O1 [Example 420, 5-(4-(((2S,6R)-6-(fluoromethyl)-6-methyl-1,4-dioxan-2-yl)methoxy)phenyl)-2-oxo-6-(trifluoromethyl)-1,2-dihydropyridine-3-carboxamide], which IC50 is on record?
The IC50 was 5 to 10 µM.

Which IC50 does the source give for NC(=O)c1cc(-c2ccc(OCC3COCC(COC(F)(F)F)O3)cc2)c(C(F)(F)F)[nH]c1=O (single isomer, unassigned) [Example 372, 2-oxo-5-(4-((6-((trifluoromethoxy)methyl)-1,4-dioxan-2-yl)methoxy)phenyl)-6-(trifluoromethyl)-1,2-dihydropyridine-3-carboxamide] here?
Its IC50 is 1 to 5 µM.

How did the IC50 turn out when CCOCC1COCC(COc2ccc(-c3cc(C(N)=O)c(=O)[nH]c3C(F)(F)F)cc2)O1 (single isomer, unassigned) [Example 361, 5-(4-((6-(ethoxymethyl)-1,4-dioxan-2-yl)methoxy)phenyl)-2-oxo-6-(trifluoromethyl)-1,2-dihydropyridine-3-carboxamide] was run?
The IC50 was 5 to 10 µM.

How did the IC50 turn out when COC[C@H]1COC[C@H](COc2ccc(-c3cc(C(N)=O)c(=O)[nH]c3C(F)(F)F)cc2)O1 (single isomer, unassigned) [Example 401] was run?
The IC50 was 5 to 10 µM.

How did the IC50 turn out when CN(C)C(=O)[C@@]1(C)COC[C@@H](COc2ccc(-c3cc(C(N)=O)c(=O)[nH]c3C(F)(F)F)cc2)O1 [Example 409, 5-(4-(((2S,6R)-6-(dimethylcarbamoyl)-6-methyl-1,4-dioxan-2-yl)methoxy)phenyl)-2-oxo-6-(trifluoromethyl)-1,2-dihydropyridine-3-carboxamide] was run?
Its IC50 is 5 to 10 µM.

Which IC50 does the source give for CC(C)OC[C@H]1COC[C@@H](COc2ccc(-c3cc(C(N)=O)c(=O)[nH]c3C(F)(F)F)cc2)O1 [Example 402, 5-(4-(((2S,6R)-6-(isopropoxymethyl)-1,4-dioxan-2-yl)methoxy)phenyl)-2-oxo-6-(trifluoromethyl)-1,2-dihydropyridine-3-carboxamide] here?
The IC50 was 5 to 10 µM.

For C[C@]12O[C@H](COc3ccc(-c4cc(C(N)=O)c(=O)[nH]c4C(F)(F)F)cc3)CO[C@H]1C2(F)F [Example 394, 5-(4-(((1S,3S,6R)-7,7-difluoro-1-methyl-2,5-dioxabicyclo[4.1.0]heptan-3-yl)methoxy)phenyl)-2-oxo-6-(trifluoromethyl)-1,2-dihydropyridine-3-carboxamide], which IC50 is on record?
Its IC50 is 5 to 10 µM.

For CC1COC(COc2ccc(-c3cc(C(N)=O)c(=O)[nH]c3C(F)(F)F)cc2)CO1 (single isomer, unassigned) [Example 323, 5-(4-((5-methyl-1,4-dioxan-2-yl)methoxy)phenyl)-2-oxo-6-(trifluoromethyl)-1,2-dihydropyridine-3-carboxamide], which IC50 is on record?
The IC50 was 10 to 25 µM.

For Cc1oncc1COc1ccc(-c2cc(C(N)=O)c(=O)[nH]c2C(F)(F)F)cc1 [Example 269, 5-(4-((5-methylisoxazol-4-yl)methoxy)phenyl)-2-oxo-6-(trifluoromethyl)-1,2-dihydropyridine-3-carboxamide], which IC50 is on record?
Its IC50 is 25 to 50 µM.

Same assay, conditions: read-out: RNP_Hubei B

How did the IC50 turn out when NC(=O)c1cc(-c2ccc(OCc3ccsc3)cc2)c(C(F)(F)F)[nH]c1=O [Example 110, 2-oxo-5-(4-(thiophen-3-ylmethoxy)phenyl)-6-(trifluoromethyl)-1,2-dihydropyridine-3-carboxamide] was run?
The IC50 was 5 to 10 µM.

Which IC50 does the source give for NC(=O)c1cc(-c2ccc(CN3CCS(=O)(=O)CC3)cc2)c(C(F)(F)F)[nH]c1=O [Example 47, 5-(4-((1,1-dioxidothiomorpholino)methyl)phenyl)-2-oxo-6-(trifluoromethyl)-1,2-dihydropyridine-3-carboxamide] here?
Its IC50 is 25 to 50 µM.

With CN1C(COc2ccc(-c3cc(C(N)=O)c(=O)[nH]c3C(F)(F)F)cc2)COCC12COC2 (stereo not shown) [Example 206, 5-(4-((5-methyl-2,8-dioxa-5-azaspiro[3.5]nonan-6-yl)methoxy)phenyl)-2-oxo-6-(trifluoromethyl)-1,2-dihydropyridine-3-carboxamide] as the compound, how does the IC50 read?
Its IC50 is 25 to 50 µM.

NC(=O)c1cc(-c2ccc(OCc3cccc([N+](=O)[O-])c3)cc2)c(C(F)(F)F)[nH]c1=O [Example 54, 5-(4-((3-nitrobenzyl)oxy)phenyl)-2-oxo-6-(trifluoromethyl)-1,2-dihydropyridine-3-carboxamide] was tested. Which IC50 did it give?
Its IC50 is 10 to 25 µM.

With NC(=O)c1cc(-c2cccc(O)c2)c(C(F)(F)F)[nH]c1=O [Example 9, 5-(3-hydroxyphenyl)-2-oxo-6-(trifluoromethyl)-1,2-dihydropyridine-3-carboxamide] as the compound, how does the IC50 read?
The IC50 was 25 to 50 µM.

NC(=O)c1cc(-c2ccc(OCc3cnc4c(c3)ncn4CC3CC3)cc2)c(C(F)(F)F)[nH]c1=O [Example 175, 5-(4-((3-(cyclopropylmethyl)-3H-imidazo[4,5-b]pyridin-6-yl)methoxy)phenyl)-2-oxo-6-(trifluoromethyl)-1,2-dihydropyridine-3-carboxamide] was tested. Which IC50 did it give?
The IC50 was 25 to 50 µM.

NC(=O)c1cc(-c2ccc(OCc3ccn4nnnc4c3)cc2)c(C(F)(F)F)[nH]c1=O [Example 90, 2-oxo-5-(4-(tetrazolo[1,5-a]pyridin-7-ylmethoxy)phenyl)-6-(trifluoromethyl)-1,2-dihydropyridine-3-carboxamide] was tested. Which IC50 did it give?
The IC50 was 25 to 50 µM.

How did the IC50 turn out when N#CCc1ccc(-c2cc(C(N)=O)c(=O)[nH]c2C(F)(F)F)cc1 [Example 20, 5-(4-(cyanomethyl)phenyl)-2-oxo-6-(trifluoromethyl)-1,2-dihydropyridine-3-carboxamide] was run?
Its IC50 is 25 to 50 µM.

With NC(=O)c1cc(-c2ccc(CN3CCOCC3)cc2F)c(C(F)(F)F)[nH]c1=O [Example 42, 5-(2-fluoro-4-(morpholinomethyl)phenyl)-2-oxo-6-(trifluoromethyl)-1,2-dihydropyridine-3-carboxamide] as the compound, how does the IC50 read?
The IC50 was 10 to 25 µM.

Which IC50 does the source give for NC(=O)c1cc(-c2ccc(OCc3ccc4nonc4c3)cc2)c(C(F)(F)F)[nH]c1=O [Example 71, 5-(4-(benzo[c][1,2,5]oxadiazol-5-ylmethoxy)phenyl)-2-oxo-6-(trifluoromethyl)-1,2-dihydropyridine-3-carboxamide] here?
Its IC50 is 25 to 50 µM.

Molecular target: influenza B virus minigenome (Hubei B) (UniProt P04665)
Sequence (P04665 whole entry): as above
Type: cell-based
Settings: read-out: RNP_Hubei B IC50

COC[C@@]1(C2CC2)COC[C@@H](COc2ccc(-c3cc(C(N)=O)c(=O)[nH]c3C(F)(F)F)cc2)O1 [Example 439, 5-(4-(((2S,6S)-6-cyclopropyl-6-(methoxymethyl)-1,4-dioxan-2-yl)methoxy)phenyl)-2-oxo-6-(trifluoromethyl)-1,2-dihydropyridine-3-carboxamide] was tested. Which IC50 did it give?
The IC50 was 5 to 10 µM.

How did the IC50 turn out when NC(=O)c1cc(-c2ccc(OC[C@@H]3COC[C@]4(CCOC4)O3)cc2)c(C(F)(F)F)[nH]c1=O [Example 440, 5-(4-(((5R,7S)-2,6,9-trioxaspiro[4.5]decan-7-yl)methoxy)phenyl)-2-oxo-6-(trifluoromethyl)-1,2-dihydropyridine-3-carboxamide] was run?
Its IC50 is 5 to 10 µM.

With C[C@@]1(C2CC2)COC[C@@H](COc2ccc(-c3cc(C(N)=O)c(=O)[nH]c3C(F)(F)F)cc2)O1 [Example 437, 5-(4-(((2S,6R)-6-cyclopropyl-6-methyl-1,4-dioxan-2-yl)methoxy)phenyl)-2-oxo-6-(trifluoromethyl)-1,2-dihydropyridine-3-carboxamide] as the compound, how does the IC50 read?
Its IC50 is 5 to 10 µM.

From US20240360082A1, “SUBSTITUTED PYRIDONE COMPOUNDS USEFUL TO TREAT ORTH[…]” (priority 2021, published 2024)
